Common to all, as to assay type: cell-based
The subject of one assay is VCaP cells. Nature of the assay: Inhibition of VCaP cell proliferation (WST-8). Particulars: Homo sapiens, 168 hours. In a few lines:
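VCaP cells seeded at 15,000/well in DMEM + 10% FBS, treated next day with nine 5-fold dilutions from 10 µM (final) at 37°C, 5% CO2. Viability read by WST-8 absorbance at 450 nm on day 9.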
A general note: Formazan colour is commonly taken as a measure of viable cells.

In the next assay the target is T1, AR protein (Homo sapiens, UniProt P10275).
T1 construct: host or cells: VCaP
T1 sequence (P10275 1-920): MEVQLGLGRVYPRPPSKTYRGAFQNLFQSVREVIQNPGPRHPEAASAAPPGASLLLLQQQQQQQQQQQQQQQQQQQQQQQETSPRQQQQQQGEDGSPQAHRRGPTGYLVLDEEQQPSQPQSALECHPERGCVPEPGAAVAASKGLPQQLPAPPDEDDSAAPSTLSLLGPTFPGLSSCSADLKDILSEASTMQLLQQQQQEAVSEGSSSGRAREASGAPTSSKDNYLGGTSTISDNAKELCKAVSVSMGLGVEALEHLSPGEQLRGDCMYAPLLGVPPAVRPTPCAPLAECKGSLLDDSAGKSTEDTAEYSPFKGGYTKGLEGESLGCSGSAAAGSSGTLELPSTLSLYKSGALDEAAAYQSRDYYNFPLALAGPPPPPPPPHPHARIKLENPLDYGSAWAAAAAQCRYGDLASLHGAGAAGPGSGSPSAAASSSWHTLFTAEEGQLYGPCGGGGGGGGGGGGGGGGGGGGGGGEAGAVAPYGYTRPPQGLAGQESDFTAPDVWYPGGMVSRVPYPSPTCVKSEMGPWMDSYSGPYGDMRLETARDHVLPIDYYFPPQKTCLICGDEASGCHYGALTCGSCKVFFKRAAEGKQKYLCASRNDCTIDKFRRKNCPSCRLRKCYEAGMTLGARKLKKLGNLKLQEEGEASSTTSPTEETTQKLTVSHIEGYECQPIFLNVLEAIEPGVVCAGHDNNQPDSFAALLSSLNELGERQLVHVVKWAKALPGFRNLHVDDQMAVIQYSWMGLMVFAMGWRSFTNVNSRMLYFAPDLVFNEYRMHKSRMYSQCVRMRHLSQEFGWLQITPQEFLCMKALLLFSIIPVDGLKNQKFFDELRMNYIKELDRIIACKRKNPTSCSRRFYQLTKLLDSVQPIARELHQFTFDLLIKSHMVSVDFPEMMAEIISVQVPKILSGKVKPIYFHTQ
As to the kind of experiment: AR protein degradation in VCaP cells (Western blot). The note with it: 8h. In a few lines: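 AR-positive VCaP human prostate cancer cells grown in DMEM with 10% FBS were plated in six-well plates at 3×10^5 cells/well and incubated overnight. Compounds were then added at 1 µL/well alongside a solvent control and incubated for 8h. Lysates in RIPA buffer with protease inhibitor were quantified by BCA and run by SDS-PAGE. AR was detected by Western blot, and degradation was calculated from band grayscale normalized to GAPDH.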
Background: Immunoblotting shows a protein as a band on a membrane.

The test system of a further assay is LNCaP cells. Nature of the assay: Inhibition of LNCaP cell proliferation (WST-8). The note with it: Homo sapiens, LNCaP FGC cells, 96 hours. In a few lines: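 Cells were seeded and cultured overnight at 37 °C, 5% CO2, then exposed for 96 h to compound at 9 concentrations, 5-fold serial dilution from 10 µM final. Viability was read by WST-8 absorbance at 450 nm.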

What is called IC50 is the midpoint of a concentration-inhibition curve.

For the compound `COc1cc(O[C@H]2C(C)(C)[C@H](NC(=O)c3ccc(N4CCC(CN5CCC6(CCc7cc(C(=O)N[C@H]8CCC(=O)NC8=O)c(F)cc7O6)CC5)CC4)nc3)C2(C)C)ccc1C#N` [A-P-33, 1'-((1-(5-(((1R,3R)-3-(4-cyano-3-methoxyphenoxy)-2,2,4,4-tetramethylcyclobutyl)carbamoyl)pyridin-2-yl)piperidin-4-yl)methyl)-N-((S)-2,6-dioxopiperidin-3-yl)-7-fluorospiro[chroman-2,4'-piperidin]-6-carboxamide], the IC50 turned out to be 0.45 µM in the assay on VCaP cells and 1.58 µM with LNCaP cells. Further, the “Degradation rate of AR protein in VCaP cells” value (shortened to “Degradation rate of AR protein”) at AR protein (0.5 nM) is listed as 56%; at AR protein (5 nM), 84%.

`COc1cc(O[C@H]2C(C)(C)[C@H](NC(=O)c3ccc(N4CCC(CN5CCC6(CCc7cc(C(=O)N[C@H]8CCC(=O)NC8=O)c(F)cc7O6)CC5)CC4)nn3)C2(C)C)ccc1C#N` [A-P-34, 1'-((1-(6-(((1R,3R)-3-(4-cyano-3-methoxyphenoxy)-2,2,4,4-tetramethylcyclobutyl)carbamoyl)pyridazin-3-yl)piperidin-4-yl)methyl)-N-((S)-2,6-dioxopiperidin-3-yl)-7-fluorospiro[chroman-2,4'-piperidin]-6-carboxamide]: the IC50 in the assay with VCaP cells came out at 0.00029 µM; with LNCaP cells, 0.87 µM. For the same compound, the “Degradation rate of AR protein” value at AR protein (0.5 nM) came to 0%; at AR protein (5 nM) it was 47%.

`C[C@H]1CC2(CCN(c3ccc(C(=O)N4CCC(CN5CCC6(CCc7cc(C(=O)N[C@H]8CCC(=O)NC8=O)c(F)cc7O6)CC5)CC4)cc3)CC2)CN1c1ccc(C#N)c(Cl)c1` [A-P-35, 1'-((1-(4-((S)-2-(3-chloro-4-cyanophenyl)-3-methyl-2,8-diazaspiro[4.5]decan-8-yl)benzoyl)piperidin-4-yl)methyl)-N-((S)-2,6-dioxopiperidin-3-yl)-7-fluorospiro[chroman-2,4'-piperidin]-6-carboxamide]: the IC50 in the assay with VCaP cells was found to be 0.004 µM; in the assay with LNCaP cells, 0.28 µM. The AR protein degradation rate at fixed concentration (%) at 0.0005 µM on AR protein (0.5 nM) turned out to be 9%. The AR protein degradation rate at fixed concentration (%) at 0.005 µM at AR protein (5 nM) was determined as 18%.

As for `COc1cc(O[C@H]2C(C)(C)[C@H](NC(=O)c3ccc(N4CCC(CN5CCC6(CCc7cc(C(=O)N[C@H]8CCC(=O)NC8=O)c(F)cc7O6)CC5)(OC)CC4)cc3)C2(C)C)ccc1C#N` [A-P-36], the IC50 with VCaP cells is 1.66 µM; with LNCaP cells, 0.82 µM. Also, the “Degradation rate of AR protein” value is recorded as 9% on AR protein (0.5 nM) and 45% at AR protein (5 nM).

In the case of `COc1cc(O[C@H]2C(C)(C)[C@H](NC(=O)c3ccc(N4CCC5(CC4)CC(N4CCC6(CCc7cc(C(=O)N[C@H]8CCC(=O)NC8=O)c(F)cc7O6)CC4)C5)cc3)C2(C)C)ccc1C#N` [A-P-37, 1'-(7-(4-(((1R,3R)-3-(4-cyano-3-methoxyphenoxy)-2,2,4,4-tetramethylcyclobutyl)carbamoyl)phenyl)-7-azaspiro[3.5]nonan-2-yl)-N-((S)-2,6-dioxopiperidin-3-yl)-7-fluorospiro[chroman-2,4'-piperidin]-6-carboxamide], the IC50 in the assay with VCaP cells was determined as 2.89 µM; with LNCaP cells it was 2.23 µM. Further, the figures for the “Degradation rate of AR protein” value at AR protein (0.5 nM) and on AR protein (5 nM) were 25% and 49%, respectively.

Turning to `COc1cc(O[C@H]2C(C)(C)[C@H](NC(=O)c3ccc(N4CCC(C)(CN5CCC6(CCc7cc(F)c(C(=O)N[C@H]8CCC(=O)NC8=O)cc7O6)CC5)CC4)cc3)C2(C)C)ccc1C#N` [A-P-38, 1-(1-(4-((1R,3R)-3-((4-cyano-3-methoxyphenoxy)-2,2,4,4-tetramethylcyclobutyl)carbamoyl)phenyl)-4-methylpiperidin-4-methyl)-N-((S)-2,6-dioxopiperidin-3-yl)-6-fluorospiro[chroman-2,4'-piperidin]-7-carboxamide], the IC50 with VCaP cells was more than 10 µM; in the assay with LNCaP cells, 1.49 µM. Besides, the “Degradation rate of AR protein” value on AR protein (0.5 nM) is -21%; on AR protein (5 nM), -5%.

Take `COc1cc(O[C@H]2C(C)(C)[C@H](NC(=O)c3ccc(N4CCC(CN5CCC6(CCc7cc(F)c(C(=O)N[C@H]8CCC(=O)NC8=O)cc7O6)CC5)CC4)cc3)C2(C)C)ccc1C#N` [A-P-39]: the figures for the IC50 with VCaP cells and in the assay with LNCaP cells were more than 10 µM and 12.4 µM, respectively. Also, the “Degradation rate of AR protein” value on AR protein (0.5 nM) is on record as -6%; on AR protein (5 nM), 9%.

In the case of `COc1cc(O[C@H]2C(C)(C)[C@H](NC(=O)c3ccc(N4CCC(CN5CCC6(CCc7cc(F)c(C(=O)N[C@H]8CCC(=O)NC8=O)cc7O6)CC5)(OC)CC4)cc3)C2(C)C)ccc1C#N` [A-P-40], the IC50 is more than 10 µM in the assay on VCaP cells and 6.56 µM in the assay on LNCaP cells. Moreover, the entries for the “Degradation rate of AR protein” value on AR protein (0.5 nM) and at AR protein (5 nM) were -8% and 10%, respectively.

As for `COc1cc(O[C@H]2C(C)(C)[C@H](NC(=O)c3ccc(N4CCC(F)(CN5CCC6(CCc7cc(F)c(C(=O)N[C@H]8CCC(=O)NC8=O)cc7O6)CC5)CC4)cc3)C2(C)C)ccc1C#N` [A-P-41], the half-inhibitory concentration (IC50) is more than 10 µM in the assay with VCaP cells and 18.6 µM in the assay on LNCaP cells. Further, the figures for the “Degradation rate of AR protein” value at AR protein (0.5 nM) and on AR protein (5 nM) were 13% and 18%, respectively.

`C[C@H]1CC2(CCN(c3ccc(N4CCC(CN5CCC6(CCc7cc(C(=O)N[C@H]8CCC(=O)NC8=O)c(F)cc7O6)CC5)CC4)cc3)CC2)CN1c1ccc(C#N)c(Cl)c1` [A-P-42, 1'-((1-(4-((S)-2-(3-chloro-4-cyanophenyl)-3-methyl-2,8-diazaspiro[4.5]decan-8-yl)phenyl)piperidin-4-yl)methyl)-N-((S)-2,6-dioxopiperidin-3-yl)-7-fluorospiro[chroman-2,4'-piperidin]-6-carboxamide]: the IC50 is more than 10 µM with VCaP cells and 0.19 µM with LNCaP cells. In addition, the AR protein degradation rate at fixed concentration (%) at 0.0005 µM at AR protein (0.5 nM) was -40%. Further, the AR protein degradation rate at fixed concentration (%) at 0.005 µM on AR protein (5 nM) was -4%.

As for `COc1cc(O[C@H]2C(C)(C)[C@H](NC(=O)c3ccc(N4CCC(C)(CN5CCC6(CCc7cc(C(=O)N[C@H]8CCC(=O)NC8=O)c(F)cc7O6)CC5)CC4)cn3)C2(C)C)ccc1C#N` [A-P-43, 1'-((1-(6-(((1r,3r)-3-(4-cyano-3-methoxyphenoxy)-2,2,4,4-tetramethylcyclobutyl)carbamoyl)pyridin-3-yl)-4-methylpiperidin-4-yl)methyl)-N-((S)-2,6-dioxopiperidin-3-yl)-7-fluorospiro[chroman-2,4'-piperidin]-6-carboxamide], the IC50 in the assay on VCaP cells was 1.55 µM; with LNCaP cells, 0.36 µM. Also, the entries for the “Degradation rate of AR protein” value on AR protein (0.5 nM) and at AR protein (5 nM) were 33% and 32%, respectively.

For the compound `CC1(C)[C@H](NC(=O)c2ccc(N3CCC(CN4CCC5(CCc6cc(C(=O)N[C@H]7CCC(=O)NC7=O)c(F)cc6O5)CC4)CC3)nc2)C(C)(C)[C@H]1Oc1ccc(C#N)c(C(F)(F)F)c1` [A-P-45, 1'-((1-(5-(((1R,3R)-3-(4-cyano-3-(trifluoromethyl)phenoxy)-2,2,4,4-tetramethylcyclobutyl)carbamoyl)pyridin-2-yl)piperidin-4-yl)methyl)-N-((S)-2,6-dioxopiperidin-3-yl)-7-fluorospiro[chroman-2,4'-piperidin]-6-carboxamide], the IC50 in the assay on VCaP cells was 0.3 µM; with LNCaP cells it was 0.57 µM. Besides, the “Degradation rate of AR protein” value on AR protein (0.5 nM) is recorded as 44%; at AR protein (5 nM), 77%.

For the origin of these results see patent EP4722219A1 (Gan & Lee Pharmaceuticals Co., Ltd., priority 2023, dated 2024).
